Target: T1, Autotaxin enzyme (ATX) (Homo sapiens, UniProt Q13822)
T1 construct: purchased Echelon Biosciences, Inc. E-4000
Assay: In vitro ATX assay (enzymatic ATX inhibition, LPC 14:0 substrate, choline oxidase/HRP absorbance readout)
Format: biochemical
Details: 0.3 mM LPC 14:0, 37° C., 4 hours, absorbance 555 nm
Summary of the method: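 Human ATX (10 ng/mL as added) in pH 9.0 Tris buffer with NaCl, MgCl2, CoCl2 and Triton X-100 was preincubated with compound for 15 min at 37 °C. LPC 14:0 (0.3 mM final) was then hydrolysed for 4 h at 37 °C. Released choline was detected by choline oxidase/HRP with 4-AAP/TOOS, read after 15 min RT as absorbance at 555 nm, giving banded IC50 values.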

Row | Compound | IC50
1 | O=C(c1cnc(N[C@H]2Cc3ccc(Cl)cc3C2)nc1)N1CCC12COC2 [Example 130, (S)-(2-((5-Chloro-2,3-dihydro-1H-inden-2-yl)amino)pyrimidin-5-yl)(6-oxa-1-azaspiro[3.3]heptan-1-yl)methanone] | 100 to 1000 nM
2 | CC(C)(O)C1CCN1C(=O)c1cnc(N[C@@H]2Cc3ccc(Cl)cc3C2)nc1 (stereo partly drawn) [Example 131, (2-(((R)-5-Chloro-2,3-dihydro-1H-inden-2-yl)amino)pyrimidin-5-yl)(2-(2-hydroxypropan-2-yl)azetidin-1-yl)methanone] | < 100 nM
3 | O=C(c1cnc(N[C@@H]2Cc3ccc(Cl)cc3C2)nc1)N1CCC12CCOC2 (stereo partly drawn) [Example 132, (2-(((R)-5-Chloro-2,3-dihydro-1H-inden-2-yl)amino)pyrimidin-5-yl)(6-oxa-1-azaspiro[3.4]octan-1-yl)methanone] | < 100 nM
4 | CC(C)(O)[C@@H]1CCN1C(=O)c1cnc(N[C@@H]2Cc3ccc(Cl)cc3C2)nc1 [Example 135] | < 100 nM
5 | CC(C)(O)[C@H]1CCN1C(=O)c1cnc(N[C@@H]2Cc3ccc(Cl)cc3C2)nc1 [Example 136, (2-(((R)-5-Chloro-2,3-dihydro-1H-inden-2-yl)amino)pyrimidin-5-yl) ((R)-2-(2-hydroxypropan-2-yl)azetidin-1-yl)methanone] | < 100 nM
6 | CS(=O)(=O)c1ccc2c(c1)CC(Nc1ncc(C(=O)N3CCC34COC4)cn1)C2 (centres unmarked) [Example 138, (2-((5-(Methylsulfonyl)-2,3-dihydro-1H-inden-2-yl)amino)pyrimidin-5-yl)(6-oxa-1-azaspiro[3.3]heptan-1-yl)methanone] | ≥ 1000 nM
7 | N#Cc1cc(CNc2ncc(C(=O)N3CCC34COC4)cn2)cc(OC(F)(F)F)c1 [Example 139, 3-(((5-(6-Oxa-1-azaspiro[3.3]heptane-1-carbonyl)pyrimidin-2-yl)amino)methyl)-5-(trifluoromethoxy)benzonitrile] | 100 to 1000 nM
8 | NC(=O)c1cc(CNc2ncc(C(=O)N3CCC34COC4)cn2)cc(OC(F)(F)F)c1 [Example 140, 3-(((5-(6-Oxa-1-azaspiro[3.3]heptane-1-carbonyl)pyrimidin-2-yl)amino)methyl)-5-(trifluoromethoxy)benzamide] | ≥ 1000 nM
9 | O=C(c1cnc(NCc2cc(OC(F)(F)F)cc(C3CC3)c2)nc1)N1CCC12CN(CC(F)(F)F)C2 [Example 148, (2-((3-Cyclopropyl-5-(trifluoromethoxy)benzyl)amino)pyrimidin-5-yl) (6-(2,2,2-trifluoroethyl)-1,6-diazaspiro[3.3]heptan-1-yl)methanone] | < 100 nM
10 | O=C(c1cnc(NCc2cc(OC(F)(F)F)cc(C3CC3)c2)nc1)N1CCC12CN(CC(F)F)C2 [Example 149, (2-((3-Cyclopropyl-5-(trifluoromethoxy)benzyl)amino)pyrimidin-5-yl) (6-(2,2-difluoroethyl)-1,6-diazaspiro[3.3]heptan-1-yl)methanone] | < 100 nM
11 | CS(=O)(=O)CCN1CC2(CCN2C(=O)c2cnc(NCc3cc(OC(F)(F)F)cc(C4CC4)c3)nc2)C1 [Example 150, (2-((3-Cyclopropyl-5-(trifluoromethoxy)benzyl)amino)pyrimidine-5-yl) (6-(2-(methylsulfonyl)ethyl)-1,6-diazaspiro[3.3]heptan-1-yl)methanone] | < 100 nM
12 | CS(=O)(=O)N1CC2(CCN2C(=O)c2cnc(NC3Cc4ccc(Cl)cc4C3)nc2)C1 (centres unmarked) [Example 152, (2-((5-Chloro-2,3-dihydro-1H-inden-2-yl)amino)pyrimidin-5-yl)(6-(methylsulfonyl)-1,6-diazaspiro[3.3]heptan-1-yl)methanone] | < 100 nM
13 | CN1CCC2(CCN2C(=O)c2cnc(NCc3cc(OC(F)(F)F)cc(C4CC4)c3)nc2)C1 (centres unmarked) [Example 155, (2-((3-Cyclopropyl-5-(trifluoromethoxy)benzyl)amino)pyrimidin-5-yl)(6-methyl-1,6-diazaspiro[3.4]octan-1-yl)methanone] | < 100 nM
14 | CN1CC2(CCCN2C(=O)c2cnc(NCc3cc(OC(F)(F)F)cc(C4CC4)c3)nc2)C1 [Example 157, (2-((3-Cyclopropyl-5-(trifluoromethoxy)benzyl)amino)pyrimidin-5-yl)(2-methyl-2,5-diazaspiro[3.4]octan-5-yl)methanone] | < 100 nM

Next, values leading:

Row | IC50 | Compound
15 | 100 to 1000 nM | CCc1ccc2c(c1)CC(Nc1ncc(C(=O)N3CCC34COC4)cn1)C2 (centres unmarked) [Example 126, (2-((5-Ethyl-2,3-dihydro-1H-inden-2-yl)amino)pyrimidin-5-yl) (6-oxa-1-azaspiro[3.3]heptan-1-yl)methanone]
16 | 100 to 1000 nM | O=C(c1cnc(NC2Cc3cc(Br)c(Br)cc3C2)nc1)N1CCC12COC2 [Example 127, (2-((5,6-Dibromo-2,3-dihydro-1H-inden-2-yl)amino)pyrimidin-5-yl)(6-oxa-1-azaspiro[3.3]heptan-1-yl)methanone]
17 | ≥ 1000 nM | Cc1cc2c(cc1C)CC(Nc1ncc(C(=O)N3CCC34COC4)cn1)C2 [Example 128, (2-((5,6-Dimethyl-2,3-dihydro-1H-inden-2-yl)amino)pyrimidin-5-yl)(6-oxa-1-azaspiro[3.3]heptan-1-yl)methanone]
18 | < 100 nM | O=C(c1cnc(N[C@@H]2Cc3ccc(Cl)cc3C2)nc1)N1CCC12COC2 [Example 129, (R)-(2-((5-Chloro-2,3-dihydro-1H-inden-2-yl)amino)pyrimidin-5-yl)(6-oxa-1-azaspiro[3.3]heptan-1-yl)methanone]
19 | < 100 nM | CC1CCN1C(=O)c1cnc(N[C@@H]2Cc3ccc(Cl)cc3C2)nc1 (stereo partly drawn) [Example 133, (2-(((R)-5-Chloro-2,3-dihydro-1H-inden-2-yl)amino)pyrimidin-5-yl)(2-methylazetidin-1-yl)methanone]
20 | < 100 nM | CC1(O)CC2(CCN2C(=O)c2cnc(N[C@@H]3Cc4ccc(Cl)cc4C3)nc2)C1 (stereo partly drawn) [Example 134, (R)-(2-((5-Chloro-2,3-dihydro-1H-inden-2-yl)amino)pyrimidin-5-yl)(6-hydroxy-6-methyl-1-azaspiro[3.3]heptan-1-yl)methanone]
21 | ≥ 1000 nM | CS(=O)(=O)c1cc(CNc2ncc(C(=O)N3CCC34COC4)cn2)cc(OC(F)(F)F)c1 [Example 137, (2-((3-(Methylsulfonyl)-5-(trifluoromethoxy)benzyl)amino)pyrimidin-5-yl)(6-oxa-1-azaspiro[3.3]heptan-1-yl)methanone]
22 | < 100 nM | O=C(c1cnc(NCc2cc(OC(F)(F)F)cc(C3CC3)c2)nc1)N1CCC12CNC2 [Example 141, (2-((3-Cyclopropyl-5-(trifluoromethoxy)benzyl)amino)pyrimidin-5-yl)(1,6-diazaspiro[3.3]heptan-1-yl)methanone]
23 | < 100 nM | CN1CC2(CCN2C(=O)c2cnc(NCc3cc(OC(F)(F)F)cc(C4CC4)c3)nc2)C1 [Example 142, (2-((3-Cyclopropyl-5-(trifluoromethoxy)benzyl)amino)pyrimidin-5-yl)(6-methyl-1,6-diazaspiro[3.3]heptan-1-yl)methanone]
24 | < 100 nM | CCN1CC2(CCN2C(=O)c2cnc(NCc3cc(OC(F)(F)F)cc(C4CC4)c3)nc2)C1 [Example 143, (2-((3-Cyclopropyl-5-(trifluoromethoxy)benzyl)amino)pyrimidin-5-yl)(6-ethyl-1,6-diazaspiro[3.3]heptan-1-yl)methanone]
25 | < 100 nM | O=C(c1cnc(NCc2cc(OC(F)(F)F)cc(C3CC3)c2)nc1)N1CCC12CN(C1CCC1)C2 [Example 144, (6-Cyclobutyl-1,6-diazaspiro[3.3]heptan-1-yl)(2-((3-cyclopropyl-5-(trifluoromethoxy)benzyl)amino)pyrimidin-5-yl)methanone]
26 | < 100 nM | O=C(c1cnc(NCc2cc(OC(F)(F)F)cc(C3CC3)c2)nc1)N1CCC12CN(C1COC1)C2 [Example 145, (2-((3-Cyclopropyl-5-(trifluoromethoxy)benzyl)amino)pyrimidin-5-yl) (6-(oxetan-3-yl)-1,6-diazaspiro[3.3]heptan-1-yl)methanone]
27 | < 100 nM | O=C(c1cnc(NCc2cc(OC(F)(F)F)cc(C3CC3)c2)nc1)N1CCC12CN(C1CC1)C2 [Example 146, (2-((3-Cyclopropyl-5-(trifluoromethoxy)benzyl)amino)pyrimidin-5-yl) (6-cyclopropyl-1,6-diazaspiro[3.3]heptan-1-yl)methanone]
28 | < 100 nM | CC(C)N1CC2(CCN2C(=O)c2cnc(NCc3cc(OC(F)(F)F)cc(C4CC4)c3)nc2)C1 [Example 147, (2-((3-Cyclopropyl-5-(trifluoromethoxy)benzyl)amino)pyrimidin-5-yl) (6-isopropyl-1,6-diazaspiro[3.3]heptan-1-yl)methanone]
29 | < 100 nM | CC(C)c1cc(CNc2ncc(C(=O)N3CCC34CN(S(C)(=O)=O)C4)cn2)cc(OC(F)(F)F)c1 [Example 151, (2-((3-Isopropyl-5-(trifluoromethoxy)benzyl)amino)pyrimidin-5-yl) (6-(methylsulfonyl)-1,6-diazaspiro[3.3]heptan-1-yl)methanone]
30 | < 100 nM | CC(=O)N1CC2(CCN2C(=O)c2cnc(NCc3cc(OC(F)(F)F)cc(C4CC4)c3)nc2)C1 [Example 153, 1-(1-(2-((3-Cyclopropyl-5-(trifluoromethoxy)benzyl)amino)pyrimidine-5-carbonyl)-1,6-diazaspiro[3.3]heptan-6-yl)ethanone]
31 | < 100 nM | CC(=O)N1CC2(CCN2C(=O)c2cnc(NC3Cc4ccc(Cl)cc4C3)nc2)C1 (centres unmarked) [Example 154, 1-(1-(2-((5-Chloro-2,3-dihydro-1H-inden-2-yl)amino)pyrimidine-5-carbonyl)-1,6-diazaspiro[3.3]heptan-6-yl)ethanone]
32 | < 100 nM | CN1CCCC2(CCN2C(=O)c2cnc(NCc3cc(OC(F)(F)F)cc(C4CC4)c3)nc2)C1 (centres unmarked) [Example 156, (2-((3-Cyclopropyl-5-(trifluoromethoxy)benzyl)amino)pyrimidin-5-yl)(6-methyl-1,6-diazaspiro[3.5]nonan-1-yl)methanone]
